Measured values as given in PMC2714906 (Endocrine, 2009).
Entries after “also recorded” stand apart in the source; their conditions may differ.

Key:
[1] = cited from earlier work; for Effect on central regulation of feeding behavior, in words: peripheral administration, ref [15], [45]
other Y receptors = conditions: cited from earlier work; for Effects at other Y receptors, in words: ref [15]; for Binding to other Y receptors, in words: ref [23]
NPFF receptors = conditions: ref [16]–[19]; cited from earlier work
[2] = tested on: IV NPY cardiovascular response; assay: BIBO3304 effect on IV NPY, NPY analog and ANG II cardiovascular responses; type: in vivo, rat (Sprague Dawley); conditions: for PRE vs POST BIBO3304 pressor response, in words: IV peptide
[3] = tested on: IV γ-MSH cardiovascular response; assay: BIBO3304 effect on IV γ-MSH and γ-MSH6–12 cardiovascular responses; type: in vivo, rat (Sprague Dawley)
[4] = IV peptide MAP and HR cardiovascular responses in urethane-anesthetized rats; type: in vivo, rat (Sprague Dawley); conditions: for Increase in MAP: IV, compare Fig. 5a with Fig. 4b; for Increase in MAP / Cardiovascular response (MAP and HR), in words: rats; for Cardiovascular response (MAP and HR), in words: IV γ-MSH 15 nmol or NPY 5 nmol
[5] = cited from earlier work
rat Y1 receptor = assay: Rat Y1 receptor binding, competition with 125I-pPYY; conditions: competition with iodinated PYY; CHO cells expressing rat Y1 receptor
[6] = tested on: sensory neuron-specific receptor (SNSR1); conditions: ref [65], [66]; cited from earlier work
Y1 receptor = type: cell-based; conditions: 50 nM, HEK tsA201 cells expressing Y1 receptor and N-type VDCC; for Reduction of IBa (N-type VDCC barium current): whole-cell, 22°C, pH 7.20
[7] = ref [8], cited from earlier work
[8] = tested on: sensory neuron-specific receptor (SNSR1); conditions: ref [65], [66]; cited from earlier work; remark: listed apart in the source
[9] = ICV BIBO3304, NPY 5 nmol IV, PRE vs POST, n = 7
[10] = central BIBO3304, summary in Discussion
[11] = NPY 5 nmol IV, change from baseline, mean ± standard error

## NC(=O)NCc1ccc(CNC(=O)[C@@H](CCCN=C(N)N)NC(=O)C(c2ccccc2)c2ccccc2)cc1 [BIBO3304]
[1]
  Effect on central regulation of feeding behavior, in words: affects central regulation of feeding behavior
Other Y receptors
  Effects at other Y receptors, in words: not reported to have significant effects at other Y receptors
  Binding to other Y receptors, in words: none of these receptors shows significant binding of BIBO3304
NPFF receptors
  Binding at NPFF receptors, in words: nanomolar-binding efficacy at NPFF receptors
[2]; ICV BIBO3304, IV NPY agonists 5 nmol
  Area under the MAP response curve, effect of BIBO3304, in words: Only the area under the NPY MAP response curve is reduced by drug treatment
[2]; ICV BIBO3304, NPY 5 nmol IV
  Effect on IV NPY cardiovascular response, in words: significant decrease in the IV NPY cardiovascular response; also recorded: blood pressure responses of NPY are significantly reduced
[2]; [9]
  Decrease in IV NPY-induced MAP response: > 40%
  Decrease in total NPY pressor response (MAP curve area): > 70%
[2]; ICV BIBO3304, two graded doses of either peptide IV (Fig. 5a)
  Effect on γ-MSH6–12 and NPY-CVa MAP responses, in words: produced significant MAP reductions for both doses of either peptide
[2]; ICV or IV BIBO3304, (D-Arg25) NPY IV
  Effect on (D-Arg25) NPY MAP / total pressor response, in words: did not change the MAP response of D-Arg25 NPY; also recorded: did not significantly affect the MAP response or total pressor response of a Y1 receptor agonist (D-Arg25) NPY; also recorded: no significant effect on D-Arg25 NPY
[2]; IV BIBO3304, two graded doses IV (Fig. 5b)
  Effect on γ-MSH6–12 and NPY-CVa MAP responses, in words (IV BIBO3304): significant reductions in MAP for both doses of γ-MSH6–12 and NPY-CVa
[2]; central or peripheral BIBO3304, NPY-CVa IV
  Effect on IV NPY-CVa cardiovascular activity, in words: IV NPY-CVa cardiovascular activity was sensitive to central or peripheral BIBO3304 administration
[2]; central or systemic BIBO3304, NPY-CVa 5 or 20 nM doses (so in the source) IV
  Reduction of IV NPY-CVa pressor response: up to 55%
[3]; ICV BIBO3304, IV γ-MSH, PRE vs POST, n = 7
  Attenuation of total γ-MSH pressor response (MAP curve area, height × width): > 60%
[3]; ICV BIBO3304, several IV doses of γ-MSH and γ-MSH6–12, subsequent study
  Attenuation of MAP response of γ-MSH or γ-MSH6–12 (either peptide): > 50%
[3]; IV or ICV BIBO3304, peptide IV
  Attenuation of pressor responses of γ-MSH and γ-MSH6–12, in words: significantly attenuated the pressor responses of γ-MSH and the γ-MSH analog
[3]; central BIBO3304, IV γ-MSH, summary in Discussion
  Reduction in total γ-MSH pressor response: 75%
[3]; [10]
  Inhibition of HR response to several IV γ-MSH doses: ~50%
  Inhibition of peak MAP response to several IV γ-MSH doses: ~50%
[3]; central or peripheral BIBO3304 alone, n = 7
  Change in baseline cardiovascular parameters: no significant changes in any baseline cardiovascular parameters

## NC(N)=NCCC[C@@H](NC(=O)C(c1ccccc1)c1ccccc1)C(=O)NCc1ccc(O)cc1 [BIBP3226]
[1]
  Effect on central regulation of feeding behavior, in words: affects central regulation of feeding behavior
Other Y receptors
  Effects at other Y receptors, in words: not reported to have significant effects at other Y receptors
NPFF receptors
  Binding at NPFF receptors, in words: nanomolar-binding efficacy at NPFF receptors

## (D-Arg25) NPY
[2]; ICV or IV BIBO3304, listed as (D-Arg^25) NPY
  PRE vs POST BIBO3304 pressor response, in words: not significantly different
[2]; ICV or IV BIBO3304, listed as D-Arg25 NPY
  PRE vs POST BIBO3304 pressor response, in words: lack of a significant difference in the PRE and POST cardiovascular responses

## Des-AA10–17-cyclo-7/21[Cys7,21, Pro34] NPY [NPY-CVa]
[1]; ref [23], [26]
  Orexigenic activity, in words: without orexigenic activity; also recorded: lacks Y1-like orexigenic activity
[4]; mean ± standard error
  Increase in MAP: 26 ± 3 mmHg
Other Y receptors
  Binding to other Y receptors, in words: significant binding to other Y receptors
[5]; ref [26]
  Pressor activity of NPY-CVa, in words: significant pressor activity

## FMRFamide
Rat Y1 receptor
  Competition for rat Y1 receptor binding, in words: failed to bind to these receptors; also recorded: Neither γ-MSH nor FMRFamide (a model RFamide peptide) competed with iodinated PYY for binding to the rat Y1 receptors

## angiotensin II [ANG II]
[2]; IV ANG II 5 nmol, POST, mean ± standard error
  Peak MAP response, POST ICV BIBO3304: 54 ± 2 mmHg
[2]; IV ANG II 5 nmol, PRE, mean ± standard error
  Peak MAP response, PRE ICV BIBO3304: 66 ± 6 mmHg
[2]; ICV or IV BIBO3304
  PRE vs POST BIBO3304 pressor response, in words: not significantly different at pre and post central BIBO3304 administration
[2]; ICV or IV BIBO3304, listed as AII
  PRE vs POST BIBO3304 pressor response, in words: not significantly different

## gamma-melanocyte stimulating hormone [γ-MSH]
Rat Y1 receptor
  Competition for rat Y1 receptor binding, in words: failed to compete with iodinated PYY for binding to the rat Y1 receptor; also recorded: Neither γ-MSH nor FMRFamide (a model RFamide peptide) competed with iodinated PYY for binding to the rat Y1 receptors
[4]
  Cardiovascular response (MAP and HR), in words: produced both pressor and cardioaccelerator effects, with no evidence of a baroreceptor-mediated bradycardia; also recorded: produces a marked pressor and tachycardia response
[6]
  SNSR1 activation: ~40 nM
Y1 receptor
  Effect on N-type VDCC / IBa, in words: does not affect Y1 receptor agonist binding capacity or signaling; also recorded: did not bind to or allosterically regulate the Y1 receptor; also recorded: neither γ-MSH nor γ-MSH6–12 affected VDCC activity; also recorded: did not produce a significant inhibition of IBa relative to control
  Reduction of IBa (N-type VDCC barium current): 3–9%
[5]; IV, forebrain CVO lesions, ref [42]
  Pressor response after forebrain CVO lesions, in words: attenuation of the IV γ-MSH cardiovascular response
[5]; carotid versus femoral artery administration, ref [31]
  Rightward shift of pressor dose–response curve: 10 fold
[5]; ref [9]–[11], [33]
  Mechanism of MAP and HR effects / baroreceptor reflex, in words: total inhibition of the baroreceptor reflex; also recorded: MAP and HR effects are due to an increase in preganglionic sympathetic drive, with no contribution of adrenal medullary catecholamine release
[7]; mouse models
  Rise in MAP: 38 mmHg
[7]; peripheral administration
  Pressor effect in MC3-R and MC4-R knockout mice, in words: these effects can be elicited following peripheral administration of γ-MSH in the MC3-R and MC4-R knockout mice

## neuropeptide Y [NPY]
[4]; IV NPY 5 nmol compared to γ-MSH, P <0.05, n = 7
  Duration of pressor response, in words: lasted significantly longer than that of γ-MSH for a relatively similar change in peak MAP
[4]
  Cardiovascular response (MAP and HR), in words: during the mid-point of the pressor response the bradycardia reversed to a cardioaccelerator response; also recorded: produces prolonged pressor and HR responses
[4]; mean ± standard error
  Increase in MAP: 41.9 ± 4 mmHg
[4]; [11]
  Peak bradycardia response: −53 ± 18 BPM
  Peak tachycardia response: 49 ± 14 BPM
[4]; baseline of the NPY 5 nmol IV group, mean ± standard error
  Baseline HR: 360 ± 11 BPM
Y1 receptor
  Effect on N-type VDCC / IBa, in words: significant decreases in N-type VDCC activity; also recorded: significantly different from the effects of γ-MSH or γ-MSH6–12
  Reduction of IBa (N-type VDCC barium current): ~50%
[8]
  SNSR1 binding, in words: nanomolar NPY binding
